This note sets out measurements from ChEMBL document CHEMBL3232987, “Investigation of Ugi-4CC derived 1H-tetrazol-5-yl-(aryl) methyl piperazinyl-6-fluoro-4-oxo-1,4-dihydroquinoline-3-carboxylic acid: synthesis, biology and 3D-QSAR analysis” (Eur J Med Chem, 2014).

In series [1] the test system is Escherichia coli. As to the kind of experiment: Antibacterial activity against Escherichia coli by NCCLS two-fold dilution method. It counts as functional.
Series [2] has as its system Staphylococcus aureus. As to the kind of experiment: Antibacterial activity against Staphylococcus aureus ATCC 29213 by NCCLS two-fold dilution method. It counts as functional.
Series [3] concerns Escherichia coli. As to the kind of experiment: Antibacterial activity against Escherichia coli after 24 hrs by spectrophotometric analysis. It counts as functional, organism-based. The note with it: Escherichia coli, 24 h; for IC50: read-out: IC50.
Series [4] deals with L929. As to the kind of experiment: Cytotoxicity against mouse L929 cells assessed as cell morphological changes at 12.5 to 50 ug/ml after 24 hrs by giemsa staining based phase contrast microscopy. The conditions noted are these: l929, 24 h.
For series [5], the system named is L929. As to the kind of experiment: Cytotoxicity against mouse L929 cells assessed as cell viability up to MIC 0.39 ug/ml after 24 hrs by MTT assay. It counts as cell-based. The conditions noted are these: l929, 24 h.
For series [6], the system named is Staphylococcus aureus. As to the kind of experiment: Antibacterial activity against Staphylococcus aureus ATCC 25923 by NCCLS two-fold dilution method. The series is classed as functional. The conditions noted are these: for MIC: Staphylococcus aureus, ATCC 25923.
Series [7] relates to Staphylococcus aureus. As to the kind of experiment: Antibacterial activity against gentamicin-resistant Staphylococcus aureus ATCC 33592 after 24 hrs by spectrophotometric analysis. The series is classed as functional, organism-based. The conditions noted are these: Staphylococcus aureus, ATCC 33592, 24 h; for IC50: read-out: IC50.
Series [8] has as its system Staphylococcus aureus. As to the kind of experiment: Antibacterial activity against Staphylococcus aureus ATCC 29213 after 24 hrs by spectrophotometric analysis. It counts as functional, organism-based. The note with it: Staphylococcus aureus, ATCC 29213, 24 h; for IC50: read-out: IC50.
Series [9] relates to Klebsiella pneumoniae. As to the kind of experiment: Antibacterial activity against Klebsiella pneumoniae by NCCLS two-fold dilution method. The series is classed as functional.
The subject of series [10] is Staphylococcus aureus. As to the kind of experiment: Antibacterial activity against methicillin-resistant Staphylococcus aureus ATCC 700699 by NCCLS two-fold dilution method. It counts as functional.
In series [11] the test system is Staphylococcus aureus. As to the kind of experiment: Antibacterial activity against gentamicin-resistant Staphylococcus aureus ATCC 33592 by NCCLS two-fold dilution method. The series is classed as functional.
The subject of series [12] is Staphylococcus aureus. As to the kind of experiment: Antibacterial activity against Staphylococcus aureus ATCC 25923 after 24 hrs by spectrophotometric analysis. The series is classed as functional, organism-based. The note with it: Staphylococcus aureus, ATCC 25923, 24 h; for IC50: read-out: IC50.
Series [13] has as its system Klebsiella pneumoniae. As to the kind of experiment: Antibacterial activity against Klebsiella pneumoniae after 24 hrs by spectrophotometric analysis. The series is classed as functional, organism-based. The conditions noted are these: Klebsiella pneumoniae, 24 h; for IC50: read-out: IC50.
The test system of series [14] is Staphylococcus aureus. As to the kind of experiment: Antibacterial activity against methicillin-resistant Staphylococcus aureus ATCC 700699 after 24 hrs by spectrophotometric analysis. The series is classed as functional, organism-based. The conditions noted are these: Staphylococcus aureus, ATCC 700699, 24 h; for IC50: read-out: IC50.
Series [15] relates to L929. As to the kind of experiment: Cytotoxicity against mouse L929 cells assessed as cell viability up to MIC 0.78 ug/ml after 24 hrs by MTT assay. The series is classed as cell-based. The note with it: l929, 24 h.

Values after ≈ are worked out from the molar mass of the structure shown.

`CCn1cc(C(=O)O)c(=O)c2cc(F)c(N3CCN(C(c4ccco4)c4nnnn4C4CCCCC4)CC3)cc21` (configuration not stated): the MIC was determined as 12.5 mg/L (≈ 22.7 µM) against Escherichia coli [1]; 1.56 mg/L (≈ 2.84 µM) in the series on Staphylococcus aureus [2]; 11.6 mg/L (≈ 21.1 µM) against Escherichia coli [3]; 0.78 mg/L (≈ 1.42 µM) with Staphylococcus aureus [6]; 0.88 mg/L (≈ 1.6 µM) against Staphylococcus aureus [7]; 1.1 mg/L (≈ 2 µM) with Staphylococcus aureus [8]. In addition, the MIC with Klebsiella pneumoniae [9] turned out to be 6.25 mg/L (≈ 11.4 µM); against Staphylococcus aureus [10], 25 mg/L (≈ 45.5 µM); with Staphylococcus aureus [11] it was 0.78 mg/L (≈ 1.42 µM); in the series on Staphylococcus aureus [12], 0.45 mg/L (≈ 0.819 µM); in the series on Klebsiella pneumoniae [13], 5.2 mg/L (≈ 9.46 µM); in the series with Staphylococcus aureus [14], 8.2 mg/L (≈ 14.9 µM). For the same molecule, the half-maximal inhibitory concentration (IC50) with Escherichia coli [3] is 4.9 mg/L (≈ 8.92 µM); with Staphylococcus aureus [7], 0.4 mg/L (≈ 0.728 µM); in the series on Staphylococcus aureus [8] it was 0.6 mg/L (≈ 1.09 µM); in the series on Staphylococcus aureus [12], 0.22 mg/L (≈ 0.4 µM); in the series on Klebsiella pneumoniae [13] it was 2.4 mg/L (≈ 4.37 µM); in the series on Staphylococcus aureus [14], 3.7 mg/L (≈ 6.73 µM). Also, the Activity entry in the series on L929 [4] and in the series on L929 [5] was “Non-toxic” each time. Also, the “-logMIC” value with Staphylococcus aureus [6] amounted to 5.847.
Consider `CCn1cc(C(=O)O)c(=O)c2cc(F)c(N3CCN(C(c4ccco4)c4nnnn4C(C)(C)C)CC3)cc21` (configuration not stated), for which the minimal inhibitory concentration (MIC) in the series on Escherichia coli [1] stood at 6.25 mg/L (≈ 11.9 µM); in the series with Staphylococcus aureus [2] it was 0.78 mg/L (≈ 1.49 µM); against Escherichia coli [3] it was 4.2 mg/L (≈ 8.02 µM); in the series with Staphylococcus aureus [6], 0.78 mg/L (≈ 1.49 µM); with Staphylococcus aureus [7], 0.5 mg/L (≈ 0.955 µM); in the series with Staphylococcus aureus [8], 0.6 mg/L (≈ 1.15 µM). For the same molecule, the minimum inhibitory concentration (MIC) was found to be 12.5 mg/L (≈ 23.9 µM) in the series with Klebsiella pneumoniae [9]; 50 mg/L (≈ 95.5 µM) against Staphylococcus aureus [10]; 0.78 mg/L (≈ 1.49 µM) against Staphylococcus aureus [11]; 0.4 mg/L (≈ 0.764 µM) against Staphylococcus aureus [12]; 10.1 mg/L (≈ 19.3 µM) in the series on Klebsiella pneumoniae [13]; 46.9 mg/L (≈ 89.6 µM) in the series with Staphylococcus aureus [14]. Moreover, the IC50 in the series on Escherichia coli [3] amounted to 2.9 mg/L (≈ 5.54 µM); in the series on Staphylococcus aureus [7], 0.2 mg/L (≈ 0.382 µM); in the series on Staphylococcus aureus [8], 0.2 mg/L (≈ 0.382 µM); in the series with Staphylococcus aureus [12], 0.3 mg/L (≈ 0.573 µM); with Klebsiella pneumoniae [13], 5.3 mg/L (≈ 10.1 µM); in the series on Staphylococcus aureus [14], 24.6 mg/L (≈ 47 µM). For the same molecule, the Activity result with L929 [4], in the series with L929 [5] and in the series with L929 [15] was “Non-toxic” throughout.

Broadly, the MIC is the lowest concentration that inhibits growth of the organism. Read a low MIC as inhibition by little substance. The IC50 is the midpoint of a concentration-inhibition curve.
